Values quoted from earlier work, collected in publication PMC9851200, “Multiparameter phenotypic screening for endogenous TFEB and TFE3 translocation identifies novel chemical series modulating lysosome function” (Autophagy, 2022).

Key:
Set-up in all cases: method as in original PKIS2 published data
[1] = molecular target: T1, kinases (KINOMEscan panel) (Homo sapiens, UniProt Q12866); settings: kinase MERTK; Published KINOMEscan; ref original PKIS2 published data; cited from earlier work
T1 sequence (Q12866 21-999): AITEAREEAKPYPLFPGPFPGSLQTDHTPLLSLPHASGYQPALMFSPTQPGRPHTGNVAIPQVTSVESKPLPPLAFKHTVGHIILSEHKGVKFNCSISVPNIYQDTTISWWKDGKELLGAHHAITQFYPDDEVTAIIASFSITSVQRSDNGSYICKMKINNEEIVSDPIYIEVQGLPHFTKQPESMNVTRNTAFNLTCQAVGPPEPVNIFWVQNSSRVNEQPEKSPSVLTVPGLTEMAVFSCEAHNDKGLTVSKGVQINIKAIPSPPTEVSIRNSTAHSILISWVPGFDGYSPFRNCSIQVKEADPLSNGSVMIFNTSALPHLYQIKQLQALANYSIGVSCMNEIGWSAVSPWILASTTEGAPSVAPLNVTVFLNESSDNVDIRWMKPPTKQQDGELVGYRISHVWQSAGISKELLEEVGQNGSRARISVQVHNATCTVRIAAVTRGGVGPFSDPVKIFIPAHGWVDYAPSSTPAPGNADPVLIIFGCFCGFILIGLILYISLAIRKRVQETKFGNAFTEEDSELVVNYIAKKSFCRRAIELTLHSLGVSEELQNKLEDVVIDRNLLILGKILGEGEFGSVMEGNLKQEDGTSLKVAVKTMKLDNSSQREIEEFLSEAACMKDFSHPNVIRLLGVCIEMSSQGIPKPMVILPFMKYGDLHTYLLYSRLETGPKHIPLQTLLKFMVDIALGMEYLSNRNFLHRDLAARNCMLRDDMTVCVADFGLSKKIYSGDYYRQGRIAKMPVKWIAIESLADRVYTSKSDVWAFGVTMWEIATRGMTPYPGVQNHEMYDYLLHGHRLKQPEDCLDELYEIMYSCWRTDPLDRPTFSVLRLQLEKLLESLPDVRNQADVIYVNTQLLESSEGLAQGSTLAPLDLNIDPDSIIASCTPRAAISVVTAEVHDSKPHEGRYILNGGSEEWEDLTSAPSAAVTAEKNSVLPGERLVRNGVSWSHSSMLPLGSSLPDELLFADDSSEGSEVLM

[2] = molecular target: kinases (KINOMEscan panel) (Homo sapiens, UniProt P04049); settings: RAF1; Published KINOMEscan; ref original PKIS2 published data; cited from earlier work
Chain of kinases (KINOMEscan panel) (Homo sapiens, UniProt P04049) (P04049 whole entry): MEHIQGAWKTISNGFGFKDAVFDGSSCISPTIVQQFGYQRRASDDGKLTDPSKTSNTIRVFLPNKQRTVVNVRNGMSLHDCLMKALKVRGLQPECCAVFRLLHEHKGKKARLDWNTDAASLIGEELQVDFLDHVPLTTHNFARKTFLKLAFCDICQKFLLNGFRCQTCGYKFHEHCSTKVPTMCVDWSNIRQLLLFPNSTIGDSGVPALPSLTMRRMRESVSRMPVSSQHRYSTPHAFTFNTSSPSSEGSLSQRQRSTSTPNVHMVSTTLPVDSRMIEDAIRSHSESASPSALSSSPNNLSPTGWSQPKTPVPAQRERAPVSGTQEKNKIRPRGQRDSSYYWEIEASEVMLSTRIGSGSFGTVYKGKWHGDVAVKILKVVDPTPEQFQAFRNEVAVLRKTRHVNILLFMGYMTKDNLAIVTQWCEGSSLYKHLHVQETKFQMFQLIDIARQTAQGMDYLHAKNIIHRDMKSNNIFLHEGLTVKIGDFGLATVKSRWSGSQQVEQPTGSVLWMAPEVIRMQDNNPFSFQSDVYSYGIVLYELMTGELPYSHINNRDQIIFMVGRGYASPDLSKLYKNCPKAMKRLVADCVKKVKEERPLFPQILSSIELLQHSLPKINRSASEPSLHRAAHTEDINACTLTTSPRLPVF

[3] = molecular target: T2, kinases (KINOMEscan panel) (Homo sapiens, UniProt Q7L7X3); settings: kinase TAOK1; Published KINOMEscan; ref original PKIS2 published data; cited from earlier work
T2 sequence (Q7L7X3 1-1001): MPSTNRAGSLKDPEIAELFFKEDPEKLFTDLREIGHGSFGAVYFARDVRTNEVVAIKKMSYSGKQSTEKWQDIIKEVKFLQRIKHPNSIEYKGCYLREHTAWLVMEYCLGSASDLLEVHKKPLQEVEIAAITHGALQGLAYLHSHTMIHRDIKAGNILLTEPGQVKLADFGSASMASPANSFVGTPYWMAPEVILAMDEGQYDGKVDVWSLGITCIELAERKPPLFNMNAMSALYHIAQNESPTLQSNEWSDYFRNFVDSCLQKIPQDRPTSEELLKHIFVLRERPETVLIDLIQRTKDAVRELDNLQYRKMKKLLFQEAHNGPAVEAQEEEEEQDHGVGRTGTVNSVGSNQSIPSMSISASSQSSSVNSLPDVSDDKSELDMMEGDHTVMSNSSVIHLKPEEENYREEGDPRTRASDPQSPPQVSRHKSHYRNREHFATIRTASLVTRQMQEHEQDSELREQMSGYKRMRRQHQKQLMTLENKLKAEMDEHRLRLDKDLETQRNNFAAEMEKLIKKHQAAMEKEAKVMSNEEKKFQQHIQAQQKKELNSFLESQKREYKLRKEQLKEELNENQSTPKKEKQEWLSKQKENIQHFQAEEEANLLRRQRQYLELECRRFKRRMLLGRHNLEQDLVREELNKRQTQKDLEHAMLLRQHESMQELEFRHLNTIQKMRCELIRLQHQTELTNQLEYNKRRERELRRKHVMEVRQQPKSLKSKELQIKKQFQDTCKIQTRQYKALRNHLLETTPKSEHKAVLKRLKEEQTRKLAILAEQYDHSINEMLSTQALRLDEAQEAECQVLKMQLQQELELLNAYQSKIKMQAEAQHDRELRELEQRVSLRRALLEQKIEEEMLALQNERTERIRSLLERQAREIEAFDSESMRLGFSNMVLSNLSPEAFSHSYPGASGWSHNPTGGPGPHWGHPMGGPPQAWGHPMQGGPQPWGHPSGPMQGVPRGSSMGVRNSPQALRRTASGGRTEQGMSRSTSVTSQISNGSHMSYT

[4] = molecular target: kinases (KINOMEscan panel) (Homo sapiens, UniProt P42684); settings: ABL2; Published KINOMEscan; ref original PKIS2 published data; cited from earlier work
Chain of kinases (KINOMEscan panel) (Homo sapiens, UniProt P42684) (P42684 whole entry): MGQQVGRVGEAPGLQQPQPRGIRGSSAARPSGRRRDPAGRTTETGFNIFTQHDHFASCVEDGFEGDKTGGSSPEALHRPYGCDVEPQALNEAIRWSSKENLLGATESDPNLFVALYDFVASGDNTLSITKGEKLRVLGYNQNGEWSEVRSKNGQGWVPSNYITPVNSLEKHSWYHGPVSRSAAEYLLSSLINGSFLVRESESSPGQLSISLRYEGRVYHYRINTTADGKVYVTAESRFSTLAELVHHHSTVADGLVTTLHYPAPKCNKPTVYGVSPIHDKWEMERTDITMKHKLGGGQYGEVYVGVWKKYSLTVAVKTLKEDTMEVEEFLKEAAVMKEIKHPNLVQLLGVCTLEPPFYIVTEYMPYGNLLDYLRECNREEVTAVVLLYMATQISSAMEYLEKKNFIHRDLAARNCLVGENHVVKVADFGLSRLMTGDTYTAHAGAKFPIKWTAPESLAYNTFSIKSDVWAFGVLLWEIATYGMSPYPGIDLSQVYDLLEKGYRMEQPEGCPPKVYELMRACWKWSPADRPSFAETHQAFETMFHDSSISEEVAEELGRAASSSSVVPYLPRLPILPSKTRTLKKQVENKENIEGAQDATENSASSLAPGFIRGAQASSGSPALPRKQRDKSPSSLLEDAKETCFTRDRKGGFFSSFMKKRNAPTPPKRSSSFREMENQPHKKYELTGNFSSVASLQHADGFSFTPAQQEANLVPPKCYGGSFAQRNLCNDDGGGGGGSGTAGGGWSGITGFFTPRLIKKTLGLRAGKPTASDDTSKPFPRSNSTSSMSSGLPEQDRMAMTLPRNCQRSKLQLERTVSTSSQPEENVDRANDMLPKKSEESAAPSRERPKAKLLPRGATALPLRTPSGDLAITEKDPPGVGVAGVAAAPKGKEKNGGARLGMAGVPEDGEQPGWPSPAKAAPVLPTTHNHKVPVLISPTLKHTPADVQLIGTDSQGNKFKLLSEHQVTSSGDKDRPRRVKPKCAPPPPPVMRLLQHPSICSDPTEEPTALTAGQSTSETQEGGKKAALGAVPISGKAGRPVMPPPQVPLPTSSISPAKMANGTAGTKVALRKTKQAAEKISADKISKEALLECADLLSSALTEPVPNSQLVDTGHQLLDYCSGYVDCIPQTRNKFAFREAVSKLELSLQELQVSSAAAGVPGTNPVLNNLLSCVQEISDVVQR

[5] = molecular target: kinases (KINOMEscan panel) (Homo sapiens, UniProt Q14680); settings: kinase MELK; Published KINOMEscan; ref original PKIS2 published data; cited from earlier work
Chain of kinases (KINOMEscan panel) (Homo sapiens, UniProt Q14680) (Q14680 whole entry): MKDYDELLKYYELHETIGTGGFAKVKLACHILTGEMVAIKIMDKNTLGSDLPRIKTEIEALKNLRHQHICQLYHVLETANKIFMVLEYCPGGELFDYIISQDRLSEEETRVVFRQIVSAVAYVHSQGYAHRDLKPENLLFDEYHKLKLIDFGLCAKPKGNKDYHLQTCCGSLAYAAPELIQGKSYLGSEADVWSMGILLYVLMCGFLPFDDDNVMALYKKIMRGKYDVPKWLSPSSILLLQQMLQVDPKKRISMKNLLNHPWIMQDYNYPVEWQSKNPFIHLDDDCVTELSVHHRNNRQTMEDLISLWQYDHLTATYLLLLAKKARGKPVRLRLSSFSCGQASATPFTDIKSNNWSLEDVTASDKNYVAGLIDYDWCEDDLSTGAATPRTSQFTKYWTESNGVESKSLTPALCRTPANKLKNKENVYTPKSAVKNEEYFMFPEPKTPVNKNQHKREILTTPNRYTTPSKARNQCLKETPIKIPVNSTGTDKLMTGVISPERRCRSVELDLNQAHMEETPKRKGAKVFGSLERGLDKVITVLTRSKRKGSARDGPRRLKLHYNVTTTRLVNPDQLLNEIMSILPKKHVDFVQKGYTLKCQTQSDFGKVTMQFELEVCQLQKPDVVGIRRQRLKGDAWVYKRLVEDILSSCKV

[6] = molecular target: kinases (KINOMEscan panel) (Homo sapiens, UniProt P00519); settings: Published KINOMEscan, ref original PKIS2 published data, cited from earlier work
Chain of kinases (KINOMEscan panel) (Homo sapiens, UniProt P00519) (P00519 whole entry): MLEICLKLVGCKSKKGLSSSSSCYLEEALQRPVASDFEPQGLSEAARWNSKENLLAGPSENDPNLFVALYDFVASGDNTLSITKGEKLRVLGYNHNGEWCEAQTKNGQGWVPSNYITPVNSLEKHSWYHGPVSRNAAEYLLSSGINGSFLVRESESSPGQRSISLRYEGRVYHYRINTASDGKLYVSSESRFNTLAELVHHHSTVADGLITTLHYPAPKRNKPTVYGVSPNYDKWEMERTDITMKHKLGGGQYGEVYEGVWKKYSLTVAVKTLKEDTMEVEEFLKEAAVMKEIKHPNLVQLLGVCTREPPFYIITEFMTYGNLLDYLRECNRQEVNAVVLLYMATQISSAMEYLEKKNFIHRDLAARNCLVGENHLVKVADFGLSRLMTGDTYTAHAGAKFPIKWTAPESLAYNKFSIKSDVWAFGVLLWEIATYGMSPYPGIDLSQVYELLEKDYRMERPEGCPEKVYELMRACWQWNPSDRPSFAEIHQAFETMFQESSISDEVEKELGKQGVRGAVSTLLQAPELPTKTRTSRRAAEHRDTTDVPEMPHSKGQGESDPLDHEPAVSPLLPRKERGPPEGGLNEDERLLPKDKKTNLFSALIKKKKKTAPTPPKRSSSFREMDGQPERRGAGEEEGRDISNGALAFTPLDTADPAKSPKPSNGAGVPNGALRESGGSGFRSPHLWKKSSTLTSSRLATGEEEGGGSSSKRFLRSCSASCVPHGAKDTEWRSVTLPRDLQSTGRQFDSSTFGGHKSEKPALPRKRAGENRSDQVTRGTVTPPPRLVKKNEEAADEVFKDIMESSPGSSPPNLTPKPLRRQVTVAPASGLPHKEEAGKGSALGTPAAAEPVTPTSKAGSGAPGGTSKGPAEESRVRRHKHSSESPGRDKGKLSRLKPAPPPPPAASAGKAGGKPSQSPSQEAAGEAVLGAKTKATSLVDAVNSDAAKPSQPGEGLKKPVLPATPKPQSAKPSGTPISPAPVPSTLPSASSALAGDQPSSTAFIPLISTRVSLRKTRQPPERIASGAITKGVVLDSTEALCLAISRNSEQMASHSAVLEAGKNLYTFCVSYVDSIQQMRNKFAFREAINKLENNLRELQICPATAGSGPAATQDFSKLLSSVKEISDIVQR

[7] = molecular target: kinases (KINOMEscan panel) (Homo sapiens, UniProt P23458); settings: JAK1(JH1domain-catalytic); Published KINOMEscan; ref original PKIS2 published data; cited from earlier work
Chain of kinases (KINOMEscan panel) (Homo sapiens, UniProt P23458) (P23458 whole entry): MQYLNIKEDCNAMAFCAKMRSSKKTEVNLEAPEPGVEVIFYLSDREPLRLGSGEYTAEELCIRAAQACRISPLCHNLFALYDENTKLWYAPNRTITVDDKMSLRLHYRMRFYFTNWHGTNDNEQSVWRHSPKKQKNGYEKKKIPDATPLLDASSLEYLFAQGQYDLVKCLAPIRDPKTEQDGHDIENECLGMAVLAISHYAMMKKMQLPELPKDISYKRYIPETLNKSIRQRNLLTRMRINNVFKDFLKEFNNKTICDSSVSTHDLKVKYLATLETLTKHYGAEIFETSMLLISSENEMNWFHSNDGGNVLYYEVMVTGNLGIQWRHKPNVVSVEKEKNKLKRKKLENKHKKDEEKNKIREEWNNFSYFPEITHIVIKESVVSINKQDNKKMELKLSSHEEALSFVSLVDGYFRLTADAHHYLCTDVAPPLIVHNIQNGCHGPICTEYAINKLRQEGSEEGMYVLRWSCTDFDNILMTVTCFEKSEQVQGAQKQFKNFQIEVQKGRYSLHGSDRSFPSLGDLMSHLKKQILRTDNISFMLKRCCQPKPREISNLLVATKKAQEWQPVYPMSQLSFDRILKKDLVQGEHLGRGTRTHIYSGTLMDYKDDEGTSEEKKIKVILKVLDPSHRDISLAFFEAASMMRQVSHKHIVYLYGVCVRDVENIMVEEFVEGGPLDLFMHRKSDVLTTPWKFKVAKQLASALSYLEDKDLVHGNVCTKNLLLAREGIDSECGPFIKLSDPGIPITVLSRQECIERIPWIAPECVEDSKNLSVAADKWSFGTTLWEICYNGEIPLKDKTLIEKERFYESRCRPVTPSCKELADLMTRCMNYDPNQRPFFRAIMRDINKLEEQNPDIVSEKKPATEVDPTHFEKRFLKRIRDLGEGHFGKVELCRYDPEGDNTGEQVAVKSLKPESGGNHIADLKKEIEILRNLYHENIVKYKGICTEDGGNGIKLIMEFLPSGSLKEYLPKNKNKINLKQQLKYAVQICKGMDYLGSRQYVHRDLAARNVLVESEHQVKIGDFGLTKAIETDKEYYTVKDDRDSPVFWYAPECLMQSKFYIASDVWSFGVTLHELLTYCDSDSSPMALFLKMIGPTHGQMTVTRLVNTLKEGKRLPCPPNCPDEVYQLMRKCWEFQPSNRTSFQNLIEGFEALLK

[8] = molecular target: kinases (KINOMEscan panel) (Homo sapiens, UniProt Q04759); settings: kinase PRKCQ; Published KINOMEscan; ref original PKIS2 published data; cited from earlier work
[9] = molecular target: kinases (KINOMEscan panel) (Homo sapiens, UniProt Q9H4B4); settings: kinase PLK3; Published KINOMEscan; ref original PKIS2 published data; cited from earlier work

## Cc1cccc(-c2nc(Nc3ccncc3)c3ccccc3n2)n1 [NK215]
[1]
  KINOMEscan MERTK: 9
[2]
  KINOMEscan RAF1: 39
[3]
  KINOMEscan TAOK1: 0
[4]
  KINOMEscan ABL2: 22
[5]
  KINOMEscan MELK: 11
[6]; ABL1-nonphosphorylated
  KINOMEscan ABL1-nonphosphorylated: 39
[6]; ABL1-phosphorylated
  KINOMEscan ABL1-phosphorylated: 28
[7]
  KINOMEscan JAK1(JH1domain-catalytic): 0
[8]
  KINOMEscan PRKCQ: 0
[9]
  KINOMEscan PLK3: 0
